Laboratory results reported in ChEMBL document CHEMBL2346513, “Synthesis and evaluation of methylsulfonylnitrobenzamides (MSNBAs) as inhibitors of the thyroid hormone receptor-coactivator interaction” (Bioorg Med Chem Lett, 2013).

What was measured:
HepG2 = experiment: Cytotoxicity against human HepG2 cells assessed as ATP level after 72 hrs by CellTiter-Glo assay; format: cell-based; details: HepG2, 72 h
[1] = target: T1, Thyroid hormone receptor alpha (Homo sapiens, UniProt P10827); experiment: Inhibition of TRalpha-LBD (unknown origin) interaction to texas red-labeled SRC2-2 peptide by fluorescence polarization assay
T1 sequence (P10827 whole entry): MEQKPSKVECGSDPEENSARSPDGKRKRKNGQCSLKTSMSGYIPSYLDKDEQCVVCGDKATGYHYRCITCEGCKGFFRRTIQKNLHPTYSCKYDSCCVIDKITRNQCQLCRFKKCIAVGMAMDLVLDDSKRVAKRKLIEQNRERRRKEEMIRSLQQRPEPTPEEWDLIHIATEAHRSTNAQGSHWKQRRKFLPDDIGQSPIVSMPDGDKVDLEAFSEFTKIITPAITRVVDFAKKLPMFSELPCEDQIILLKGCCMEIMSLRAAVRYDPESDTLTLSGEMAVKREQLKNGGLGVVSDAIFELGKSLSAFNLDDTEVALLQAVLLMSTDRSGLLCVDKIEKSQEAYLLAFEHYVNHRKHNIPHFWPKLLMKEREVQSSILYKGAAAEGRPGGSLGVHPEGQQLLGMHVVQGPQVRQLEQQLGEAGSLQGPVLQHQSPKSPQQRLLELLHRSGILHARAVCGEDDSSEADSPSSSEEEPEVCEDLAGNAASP

Vitamin D3 receptor = target: T2, Vitamin D3 receptor (Homo sapiens, UniProt P11473); experiment: Inhibition of VDR (unknown origin) interaction to SRC2-3 peptide by fluorescence polarization assay
T2 sequence (P11473 whole entry): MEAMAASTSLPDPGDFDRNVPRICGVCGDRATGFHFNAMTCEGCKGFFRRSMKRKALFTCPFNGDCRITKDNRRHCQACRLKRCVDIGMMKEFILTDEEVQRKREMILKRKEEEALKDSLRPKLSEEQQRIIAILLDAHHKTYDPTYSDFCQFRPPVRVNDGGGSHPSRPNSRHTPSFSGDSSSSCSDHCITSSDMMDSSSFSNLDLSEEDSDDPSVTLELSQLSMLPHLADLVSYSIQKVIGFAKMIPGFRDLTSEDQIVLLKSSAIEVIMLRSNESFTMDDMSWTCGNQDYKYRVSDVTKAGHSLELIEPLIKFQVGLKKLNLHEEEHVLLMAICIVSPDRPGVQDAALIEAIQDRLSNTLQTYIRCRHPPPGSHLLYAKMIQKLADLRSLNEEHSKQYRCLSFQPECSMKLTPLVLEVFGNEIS

[2] = target: T3, Thyroid hormone receptor beta (Homo sapiens, UniProt P10828); experiment: Inhibition of TRbeta-LBD (unknown origin) interaction to texas red-labeled SRC2-2 peptide by fluorescence polarization assay
T3 sequence (P10828 whole entry): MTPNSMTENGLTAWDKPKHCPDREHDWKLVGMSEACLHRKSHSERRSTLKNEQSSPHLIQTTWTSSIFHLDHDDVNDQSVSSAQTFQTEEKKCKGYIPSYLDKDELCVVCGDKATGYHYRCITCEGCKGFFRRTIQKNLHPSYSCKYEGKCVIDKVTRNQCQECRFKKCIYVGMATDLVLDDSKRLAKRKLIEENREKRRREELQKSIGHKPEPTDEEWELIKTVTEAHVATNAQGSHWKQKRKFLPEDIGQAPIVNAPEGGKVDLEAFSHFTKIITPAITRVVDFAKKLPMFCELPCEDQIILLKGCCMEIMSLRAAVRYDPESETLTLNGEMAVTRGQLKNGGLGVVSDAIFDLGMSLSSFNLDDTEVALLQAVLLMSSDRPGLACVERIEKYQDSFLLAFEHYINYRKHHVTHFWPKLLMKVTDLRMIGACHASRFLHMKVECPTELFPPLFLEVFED

IC50 [1]	IC50 (Vitamin D3 receptor)	IC50 [2]	Compound	EC50 (HepG2)
> 60 µM	55 µM	> 60 µM	CC1Cc2ccccc2N1C(=O)CCNC(=O)c1ccc(S(C)(=O)=O)c([N+](=O)[O-])c1 (centres undefined)	> 27 µM
29 µM	> 60 µM	59 µM	CS(=O)(=O)c1ccc(C(=O)NCCCC(=O)N(Cc2ccccc2)Cc2ccccc2)cc1[N+](=O)[O-]	> 27 µM
> 60 µM	> 60 µM	> 60 µM	CC1CCN(C(=O)CCNC(=O)c2ccc(S(C)(=O)=O)c([N+](=O)[O-])c2)CC1	> 27 µM
1.9 µM	> 60 µM	6.6 µM	CCCN(C(=O)CNC(=O)c1ccc(S(C)(=O)=O)c([N+](=O)[O-])c1)c1ccccc1	> 27 µM
> 60 µM	66 µM	> 60 µM	CS(=O)(=O)c1ccc(C(=O)NCCC(=O)N2CCN(c3ccccc3F)CC2)cc1[N+](=O)[O-]	> 27 µM
> 60 µM	> 60 µM	> 60 µM	CS(=O)(=O)c1ccc(C(=O)N2CCC(C(=O)N3CCC(c4ccccc4)CC3)CC2)cc1[N+](=O)[O-]	> 27 µM
> 60 µM	> 60 µM	> 60 µM	CN1CCN(C(=O)CNC(=O)c2ccc(S(C)(=O)=O)c([N+](=O)[O-])c2)CC1	> 27 µM
> 60 µM	> 60 µM	24 µM	CN(Cc1ccccc1F)C(=O)CNC(=O)c1ccc(S(C)(=O)=O)c([N+](=O)[O-])c1	11.4 µM
> 60 µM	> 60 µM	> 60 µM	CS(=O)(=O)c1ccc(C(=O)N2CCC(C(=O)N3CCc4ccccc43)CC2)cc1[N+](=O)[O-]	> 27 µM
44 µM	> 60 µM	> 60 µM	CS(=O)(=O)c1ccc(C(=O)NCC(=O)N2CCCCC2)cc1[N+](=O)[O-]	14 µM
> 60 µM	> 60 µM	> 60 µM	CS(=O)(=O)c1ccc(C(=O)NCCC(=O)N2CCN(c3ccccc3)CC2)cc1[N+](=O)[O-]	> 27 µM
> 60 µM	> 60 µM	> 60 µM	CC(C)N(C(=O)CCNC(=O)c1ccc(S(C)(=O)=O)c([N+](=O)[O-])c1)C(C)C	> 27 µM
> 60 µM	> 60 µM	> 60 µM	CN(CC(=O)N1CCc2ccccc21)C(=O)c1ccc(S(C)(=O)=O)c([N+](=O)[O-])c1	> 27 µM
> 60 µM	> 60 µM	10.6 µM	CS(=O)(=O)c1ccc(C(=O)NCCCC(=O)NC23CC4CC(CC(C4)C2)C3)cc1[N+](=O)[O-]	> 27 µM
> 60 µM	> 60 µM	> 60 µM	CC1Cc2ccccc2N1C(=O)CCCNC(=O)c1ccc(S(C)(=O)=O)c([N+](=O)[O-])c1 (centres undefined)	> 27 µM
> 60 µM	> 60 µM	> 60 µM	CN1CCN(C(=O)C2CCN(C(=O)c3ccc(S(C)(=O)=O)c([N+](=O)[O-])c3)CC2)CC1	> 27 µM
> 60 µM	> 60 µM	> 60 µM	CS(=O)(=O)c1ccc(C(=O)N2CCC(C(=O)N3Cc4ccccc4C3)CC2)cc1[N+](=O)[O-]	> 27 µM
> 60 µM	> 60 µM	39 µM	CN(Cc1ccccc1)C(=O)CNC(=O)c1ccc(S(C)(=O)=O)c([N+](=O)[O-])c1	> 27 µM
> 60 µM	> 60 µM	> 60 µM	CN(CC(=O)N1CCN(c2ccc(F)cc2)CC1)C(=O)c1ccc(S(C)(=O)=O)c([N+](=O)[O-])c1	17.2 µM
> 60 µM	> 60 µM	> 60 µM	CC1CCN(C(=O)CCCNC(=O)c2ccc(S(C)(=O)=O)c([N+](=O)[O-])c2)CC1	> 27 µM
> 60 µM	> 60 µM	> 60 µM	CS(=O)(=O)c1ccc(C(=O)N2CCC(C(=O)N(Cc3ccccc3)Cc3ccccc3)CC2)cc1[N+](=O)[O-]	> 27 µM
